According to US12171835B2, “Furan-aspidospermine dimer or pharmaceutically acceptable salt thereof, and preparation method, use and pharmaceutical composition” (Kunming Inst. of Botany, Chinese Acad. of Sciences, priority 2021, dated 2024):

How the values were obtained:
[1] = test system: bone marrow-derived macrophages (BMMs); assay: Activated immune test: ARG1 activity / M2 polarization in IL-4-stimulated BMMs; format: cell-based, mouse; conditions: for inhibition of the expression of arginase induced by IL-4 in macrophages: BMMs pretreated with drug (1 μM), IL-4 stimulation 12 h, absorbance at 540 nm, FIG. 1
Method: Activated immune test: bone marrow-derived macrophages (BMMs), as primary cells isolated from bone marrow and subjected to induced culture that can well reflect functions of the macrophages, are commonly used cells to study the functions of the macrophages. A mouse femur bone marrow was isolated and cultured in a medium containing an mCSF factor for 6-7 d to obtain mature BMMs; stimulation with IL-4 for 12 h can induce polarization of the BMMs to an immunosuppressive M2 type with high expression of ARG1; after the ARG1 protein was extracted, arginine hydrolysis was conducted in vitro, and color development was further conducted by reacting α-isonitrosopropiophenone with a hydrolyzate urea; an absorbance was measured at a wavelength of 540 nm as a marker of an ARG1 activity. A specific process was as follows: cells were pretreated with drugs (1 μM) (including the CPLD, CPLL, TBYA, MDK, HMD, compounds 1-3 and compounds 5-7); IL-4 stimulation was conducted for 12 h, followed by washing with PBS, and cells were lysed with a lysis buffer containing a protease inhibitor, and a total cell protein was obtained; after adding […] to 0.4 mM Mn^2, the total cell protein was heated at 55° C. for 10 min to fully activate an arginase ARG1. 0.5 mM arginine was added for incubation at 37° C. for 1 h to 2 h to fully hydrolyze the arginine. An acid solution containing sulfuric acid and phosphoric acid was added to stop the reaction, a 9% α-isonitrosopropiophenone ethanol solution was added, followed by heating at 95° C. for 15 min to 30 min to develop color.

[2] = test system: bone marrow-derived macrophages (BMMs); assay: as above; format: cell-based, mouse; conditions: FIG. 1C, FIG. 2
[3] = test system: CD8+ T cells and other immune cells in the tumor; assay: FACS analysis / intracellular staining of immune cells in the tumors; format: in vivo, mouse
From the text: Validation of improving and enhancing CD8^+ T cell function: through FACS analysis, the test results of compound 1 are shown in FIG. 3. […] In addition, the compound 1 is able to down-regulate a proportion of CD206^+ macrophages (FIG. 4).
(§1) Further immunofluorescence staining experiments also find that the CPLD can increase the proportion of CD8 T cells and promote the expression of Granzyme B (L). Further, mice were continuously injected with anti-CD8 antibodies to delete CD8+ T cells in the mice, to construct a melanoma model, followed by investigation of an anti-tumor activity of the compounds.

CD8 T cells = assay: immunofluorescence staining of tumors; format: in vivo, mouse; conditions: FIG. 5L
From the text: as §1

melanoma = assay: CD8+ T cell-depleted melanoma model (anti-CD8 antibodies); format: in vivo, mice; conditions: FIG. 5M to N
From the text: as §1

tumor = assay: nude mouse tumor model (CPLD); format: in vivo; conditions: FIG. 5M to N

Ibogabisindole [reference compound]
activity of inhibiting M2 polarization in macrophages ([1]; comparison substances lacking the furan-aspidospermine dimer skeleton): neither the furan-ringed aspidospermine, Corynantheine, nor the furan-ringed aspidospermine, Ibogabisindole, have the activity

CC[C@@]12CC(C(=O)OC)=C3Nc4cc5c(cc4[C@@]34CCN(C[C@H]3O[C@H]31)[C@@H]24)[C@@H]1[C@H](O5)[C@@H](O)[C@@]2(CC)CC(C(=O)OC)=C3Nc4c(cc(O)c(OC)c4OC)[C@@]34CCN1[C@@H]24 [CPLL, conophylline]
inhibition of the expression of arginase induced by IL-4 in macrophages [1]: significantly inhibit
inhibition of M2 polarization of the macrophages, concentration dependence [2]: inhibit M2 polarization of the macrophages in a concentration-dependent manner

melodinine K [MDK]
inhibition of the expression of arginase induced by IL-4 in macrophages [1]: significantly inhibit
inhibition of M2 polarization of the macrophages, concentration dependence [2]: inhibit M2 polarization of the macrophages in a concentration-dependent manner

19′-hydroxymelodinineK [HMD]
inhibition of the expression of arginase induced by IL-4 in macrophages [1]: significantly inhibit
inhibition of M2 polarization of the macrophages, concentration dependence [2]: inhibit M2 polarization of the macrophages in a concentration-dependent manner

CC[C@@]12C=CCN3CC[C@]4(C(=C(C(=O)OC)C1)Nc1cc5c(cc14)[C@H]1[C@@H](O5)[C@H](O)[C@]4(CC)CC(C(=O)OC)=C5Nc6c(cc(O)c(OC)c6OC)[C@@]56CCN1[C@H]46)[C@H]32 [CPLD, conophyllidine]
inhibition of the expression of arginase induced by IL-4 in macrophages [1]: significantly inhibit
effect on CD4 T cells ([3]; FACS analysis): no significant effect
effect on Treg cells (proportion) ([3]; FACS analysis): no effect
proportion of CD8+ T cells in the tumor ([3]; FACS analysis): significantly increase
expression of Granzyme B in CD8+ T cells ([3]; intracellular staining): enhance
expression of IFNγ in CD8+ T cells ([3]; intracellular staining): enhance
expression of TNFα in CD8+ T cells ([3]; intracellular staining): enhance
function of the CD8+ T cells ([3]; intracellular staining): promote
expression of Granzyme B (CD8 T cells): promote
proportion of CD8 T cells (CD8 T cells): increase
anti-tumor effect (melanoma): significantly reduced
anti-tumor effect (tumor): significantly reduced
inhibition of M2 polarization of the macrophages, concentration dependence [2]: inhibit M2 polarization of the macrophages in a concentration-dependent manner

taberyunine A [TBYA]
inhibition of the expression of arginase induced by IL-4 in macrophages [1]: significantly inhibit
inhibition of M2 polarization of the macrophages, concentration dependence [2]: inhibit M2 polarization of the macrophages in a concentration-dependent manner
